According to patent US8546395B2, “6-cycloamino-3-(1H-pyrrolo[2,3-b]pyridin-4-yl)imidazo[1,2-b]pyridazine derivatives, preparation thereof and therapeutic use thereof” (Sanofi, priority 2008, dated 2013):
Where a name gives a salt, the structure may show the parent alone.

Test system: not given
Experiment: not given
Conditions: not given

Structure (SMILES) | melting point
Cc1cc(N2CCNC(C)(C)C2)nn2c(-c3ccnc4[nH]ccc34)c(-c3cccc(F)c3)nc12 [Compound 9, 6-(3,3-Dimethylpiperazin-1-yl)-2-(3-fluorophenyl)-8-methyl-3-(1H-pyrrolo[2,3-b]pyridin-4-yl)imidazo[1,2-b]pyridazine] | 270 to 273 °C
Cc1cc(N2CCNC(C)(C)C2)nn2c(-c3ccnc4[nH]ccc34)c(-c3ccc(F)cc3)nc12 [Compound 10, 6-(3,3-Dimethylpiperazin-1-yl)-2-(4-fluorophenyl)-8-methyl-3-(1H-pyrrolo[2,3-b]pyridin-4-yl)imidazo[1,2-b]pyridazine] | > 300 °C
C[C@@H]1CN(c2ccc3nc(-c4ccc(F)cc4)c(-c4ccnc5[nH]ccc45)n3n2)C[C@H](C)N1 [Compound 11, 6-[(cis)-3,5-Dimethylpiperazin-1-yl]-2-(4-fluorophenyl)-3-(1H-pyrrolo[2,3-b]pyridin-4-yl)imidazo[1,2-b]pyridazine] | 288 to 290 °C
Cc1cc(N2CCN(CCO)CC2)nn2c(-c3ccnc4[nH]ccc34)c(-c3cccc(F)c3)nc12 [Compound 12, 2-{4-[2-(3-Fluorophenyl)-8-methyl-3-(1H-pyrrolo[2,3-b]pyridin-4-yl)imidazo[1,2-b]pyridazin-6-yl]piperazin-1-yl}ethanol] | 201 to 203 °C
Cc1cc(N2CCN(CCO)CC2)nn2c(-c3ccnc4[nH]ccc34)c(-c3ccc(F)cc3)nc12 [Compound 13, 2-{4-[2-(4-Fluorophenyl)-8-methyl-3-(1H-pyrrolo[2,3-b]pyridin-4-yl)imidazo[1,2-b]pyridazin-6-yl]piperazin-1-yl}ethanol] | 239 to 242 °C
CC(C)N1CCN(c2ccc3nc(-c4ccc(F)cc4)c(-c4ccnc5[nH]ccc45)n3n2)CC1 [Compound 14, 2-(4-Fluorophenyl)-6-(4-isopropylpiperazin-1-yl)-3-(1H-pyrrolo[2,3-b]pyridin-4-yl)imidazo[1,2-b]pyridazine] | 271 to 273 °C
Cc1cc(N2CCN(C(C)C)CC2)nn2c(-c3ccnc4[nH]ccc34)c(-c3ccc(F)cc3)nc12 [Compound 15, 2-(4-Fluorophenyl)-6-(4-isopropylpiperazin-1-yl)-8-methyl-3-(1H-pyrrolo[2,3-b]pyridin-4-yl)imidazo[1,2-b]pyridazine] | 285 to 291 °C
Cc1cc(N2CCNC3(CCCC3)C2)nn2c(-c3ccnc4[nH]ccc34)c(-c3ccc(F)cc3)nc12 [Compound 18, 6-(6,9-Diazaspiro[4.5]dec-9-yl)-2-(4-fluorophenyl)-8-methyl-3-(1H-pyrrolo[2,3-b]pyridin-4-yl)imidazo[1,2-b]pyridazine] | 293 to 299 °C
CC(C)(CO)N1CCN(c2ccc3nc(-c4ccc(F)cc4)c(-c4ccnc5[nH]ccc45)n3n2)CC1 [Compound 19, 2-{4-[2-(4-Fluorophenyl)-3-(1H-pyrrolo[2,3-b]pyridin-4-yl)imidazo[1,2-b]pyridazin-6-yl]piperazin-1-yl}-2-methylpropan-1-ol] | > 250 °C
Cc1cc(N2CCN(CC(C)(C)O)CC2)nn2c(-c3ccnc4[nH]ccc34)c(-c3cccc(F)c3)nc12 [Compound 21, 1-{4-[2-(3-Fluorophenyl)-8-methyl-3-(1H-pyrrolo[2,3-b]pyridin-4-yl)imidazo[1,2-b]pyridazin-6-yl]piperazin-1-yl}-2-methylpropan-2-ol] | > 270 °C
Cc1cc(N2CCN(CC(C)(C)O)CC2)nn2c(-c3ccnc4[nH]ccc34)c(-c3ccc(F)cc3)nc12 [Compound 22, 1-{4-[2-(4-Fluorophenyl)-8-methyl-3-(1H-pyrrolo[2,3-b]pyridin-4-yl)imidazo[1,2-b]pyridazin-6-yl]piperazin-1-yl}-2-methylpropan-2-ol] | 265 to 268 °C
CC(C)(O)CCN1CCN(c2ccc3nc(-c4ccc(F)cc4)c(-c4ccnc5[nH]ccc45)n3n2)CC1 [Compound 23, 4-{4-[2-(4-Fluorophenyl)-3-(1H-pyrrolo[2,3-b]pyridin-4-yl)imidazo[1,2-b]pyridazin-6-yl]piperazin-1-yl}-2-methylbutan-2-ol] | 73 to 75 °C

The next lines start with the values.

melting point | Structure (SMILES)
215 °C (dec.) | Fc1ccc(-c2nc3ccc(N4CCN[C@H](c5ccccc5)C4)nn3c2-c2ccnc3[nH]ccc23)cc1 (as salt: HCl) [Compound 24, (R)-2-(4-Fluorophenyl)-6-[3-phenylpiperazin-1-yl]-3-(1H-pyrrolo[2,3-b]pyridin-4-yl)imidazo[1,2-b]pyridazine]
215 °C (dec.) | Fc1ccc(-c2nc3ccc(N4CCN[C@@H](c5ccccc5)C4)nn3c2-c2ccnc3[nH]ccc23)cc1 (as salt: HCl) [Compound 25, (S)-2-(4-Fluorophenyl)-6-[3-phenylpiperazin-1-yl]-3-(1H-pyrrolo[2,3-b]pyridin-4-yl)imidazo[1,2-b]pyridazine]
253 to 257 °C | Cc1cc(N2CCNC(c3ccccc3)C2)nn2c(-c3ccnc4[nH]ccc34)c(-c3ccc(F)cc3)nc12 (centres unmarked) [Compound 26, 2-(4-Fluorophenyl)-8-methyl-6-[3-phenylpiperazin-1-yl]-3-(1H-pyrrolo[2,3-b]pyridin-4-yl)imidazo[1,2-b]pyridazine]
274 to 278 °C | Fc1ccc(-c2nc3ccc(N4CCN(Cc5ccccc5)CC4)nn3c2-c2ccnc3[nH]ccc23)cc1 [Compound 27, 6-(4-Benzylpiperazin-1-yl)-2-(4-fluorophenyl)-3-(1H-pyrrolo[2,3-b]pyridin-4-yl)imidazo[1,2-b]pyridazine]
238 to 239 °C | CN1C[C@@H]2CN(c3ccc4nc(-c5ccc(F)cc5)c(-c5ccnc6[nH]ccc56)n4n3)C[C@@H]2C1 [Compound 28, (cis)-2-(4-Fluorophenyl)-6-(5-methylhexahydropyrrolo[3,4-c]pyrrol-2(1H)-yl)-3-(1H-pyrrolo[2,3-b]pyridin-4-yl)imidazo[1,2-b]pyridazine]
175 to 180 °C | OCCN1C[C@@H]2CN(c3ccc4nc(-c5ccc(F)cc5)c(-c5ccnc6[nH]ccc56)n4n3)C[C@@H]2C1 [Compound 30, (cis)-2-{5-[2-(4-Fluorophenyl)-3-(1H-pyrrolo[2,3-b]pyridin-4-yl)imidazo[1,2-b]pyridazin-6-yl]hexahydropyrrolo[3,4-c]pyrrol-2(1H)-yl}ethanol]
271 to 275 °C | Cc1cc(N2C[C@H]3CN(CCO)C[C@H]3C2)nn2c(-c3ccnc4[nH]ccc34)c(-c3ccc(F)cc3)nc12 [Compound 31, (cis)-2-{5-[2-(4-Fluorophenyl)-8-methyl-3-(1H-pyrrolo[2,3-b]pyridin-4-yl)imidazo[1,2-b]pyridazin-6-yl]hexahydropyrrolo[3,4-c]pyrrol-2(1H)-yl}ethanol]
> 260 °C | Cc1cc(N2C[C@H]3CCCN(C)[C@H]3C2)nn2c(-c3ccnc4[nH]ccc34)c(-c3ccc(F)cc3)nc12 [Compound 32, 2-(4-Fluorophenyl)-8-methyl-6-((4aR,7aR)-1-methyloctahydro-6H-pyrrolo[3,4-b]pyridin-6-yl)-3-(1H-pyrrolo[2,3-b]pyridin-4-yl)imidazo[1,2-b]pyridazine]
> 260 °C | Cc1cc(N2C[C@@H]3CCCN(C)[C@@H]3C2)nn2c(-c3ccnc4[nH]ccc34)c(-c3ccc(F)cc3)nc12 [Compound 33, 2-(4-Fluorophenyl)-8-methyl-6-((4aS,7aS)-1-methyloctahydro-6H-pyrrolo[3,4-b]pyridin-6-yl)-3-(1H-pyrrolo[2,3-b]pyridin-4-yl)imidazo[1,2-b]pyridazine]
148 to 168 °C | CN1C[C@@H]2C[C@H]1CN2c1ccc2nc(-c3ccc(F)cc3)c(-c3ccnc4[nH]ccc34)n2n1 [Compound 34, 2-(4-Fluorophenyl)-6-((1S,4S)-5-methyl-2,5-diazabicyclo[2.2.1]hept-2-yl)-3-(1H-pyrrolo[2,3-b]pyridin-4-yl)imidazo[1,2-b]pyridazine]

Target: T1, casein kinase 1 epsilon (CK1 epsilon) (Homo sapiens, UniProt P49674)
T1 construct: Invitrogen Corporation (as an alternative)
T1 sequence (P49674 whole entry): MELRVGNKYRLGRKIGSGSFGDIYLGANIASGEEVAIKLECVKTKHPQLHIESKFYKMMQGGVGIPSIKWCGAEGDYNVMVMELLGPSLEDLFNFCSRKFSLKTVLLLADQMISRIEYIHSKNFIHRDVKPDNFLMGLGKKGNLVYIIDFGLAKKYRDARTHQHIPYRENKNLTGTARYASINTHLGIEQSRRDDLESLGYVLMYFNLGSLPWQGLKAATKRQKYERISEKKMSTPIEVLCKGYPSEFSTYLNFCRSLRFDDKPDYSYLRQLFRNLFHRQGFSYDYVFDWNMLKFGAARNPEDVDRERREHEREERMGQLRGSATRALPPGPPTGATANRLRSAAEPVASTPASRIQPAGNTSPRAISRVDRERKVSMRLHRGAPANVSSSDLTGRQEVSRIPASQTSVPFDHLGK
Experiment: Filter-plate assay of ATP-33P for CK1 epsilon inhibitors (phosphorylation of casein)
Assay type: biochemical
Conditions: casein substrate, ATP-33P with 10 μM cold ATP, 2 hours at ambient temperature
Protocol: The capacity of the compounds of the invention to inhibit the phosphorylation of casein by casein kinase 1 epsilon and delta may be evaluated according to the procedure described in US 2005/0131012.
Filter-Plate Assay of ATP-^33P for the Screening of CK1 Epsilon Inhibitors:
The effect of the compounds on inhibition of the phosphorylation of casein by the enzyme casein kinase 1 epsilon (CK1 epsilon) is measured, using a casein assay with filtration of ATP-^33P in vitro.
Casein kinase 1 epsilon (0.58 mg/ml) is obtained via fermentation and purification processes performed according to methods that are well known to those skilled in the art, or may also be obtained from Invitrogen Corporation™ (human CK1 epsilon).
The compounds are tested at five different concentrations so as to generate IC50 values, i.e. the concentration at which a compound is capable of inhibiting the enzymatic activity by 50%, or alternatively the percentage of inhibition at a concentration of 10 micromolar.
“U”-bottomed Falcon plates are prepared by placing 5 μL of solutions of the compounds according to the invention at concentrations of 10, 1, 0.1, 0.01 or 0.001 μM in various wells. The solutions of the compounds according to the invention at these various concentrations are prepared by diluting in a test buffer (50 mM Tris, pH 7.5, […], 2 mM DTT and 1 mM EGTA) a stock solution in DMSO at a concentration of 10 mM. Next, 5 μL of dephosphorylated casein are added to a final concentration of 0.2 μg/μL, 20 μl of CK1 epsilon to a final concentration of 3 ng/μl, and 20 μl of ATP-^33P to a final concentration of 0.02 μCi/μl mixed with cold ATP (10 μM final—approximately 2×10^6 CPM per well). The final total test volume per well is equal to 50 μl.
The “U”-bottomed Falcon® test plate mentioned above is vortexed, and then incubated at ambient temperature for 2 hours. After 2 hours, the reaction is stopped by adding an ice-cold solution of 65 μl of ATP (2 mM) prepared in test buffer.
100 μl of the reaction mixture are then transferred from the “U”-bottomed Falcon® plate into Millipore® MAPH filter plates, preimpregnated with 25 μl of ice-cold 100% TCA. […]
The plates are left to dry overnight at ambient temperature. […] The radiation emitted by each well is then measured for 2 minutes in a Packard® Topcount NXT scintillation counter, in which the values of CPM/well are measured.
The percentage inhibition of the capacity of the enzyme to phosphorylate the substrate (casein) is determined for each concentration of compound tested. These inhibition data expressed as percentages are used to calculate the IC50 value for each compound compared with the controls.
The kinetic studies determined the KM value for ATP as being 21 μM in this test system.

IC50 [nM] | Structure (SMILES)
303 | Cc1nc2ccc(N3C[C@@H](C)N[C@@H](C)C3)nn2c1-c1ccnc2[nH]ccc12 [Compound 3, 6-[(cis)-3,5-Dimethylpiperazin-1-yl]-2-methyl-3-(1H-pyrrolo[2,3-b]pyridin-4-yl)-imidazo[1,2-b]pyridazine]
